# Source: US7858635B2 (priority 2005, dated 2010)
# Read-outs that look alike come from different tables or passages of the source.
# Legend:
# [1] = target: T1, M1 muscarinic receptor (Homo sapiens, UniProt P11229); experiment: Functional mobilization of intracellular calcium (FLIPR, Fluo-3), M1-CHO cells; assay type: cell-based; conditions: for Emax: read-out: M1 Efficacy
# T1 construct: expressed in transfected cells; host or cells: CHO cells (M1-CHO, under zeocin and G418 selection)
# T1 sequence (P11229 1-460): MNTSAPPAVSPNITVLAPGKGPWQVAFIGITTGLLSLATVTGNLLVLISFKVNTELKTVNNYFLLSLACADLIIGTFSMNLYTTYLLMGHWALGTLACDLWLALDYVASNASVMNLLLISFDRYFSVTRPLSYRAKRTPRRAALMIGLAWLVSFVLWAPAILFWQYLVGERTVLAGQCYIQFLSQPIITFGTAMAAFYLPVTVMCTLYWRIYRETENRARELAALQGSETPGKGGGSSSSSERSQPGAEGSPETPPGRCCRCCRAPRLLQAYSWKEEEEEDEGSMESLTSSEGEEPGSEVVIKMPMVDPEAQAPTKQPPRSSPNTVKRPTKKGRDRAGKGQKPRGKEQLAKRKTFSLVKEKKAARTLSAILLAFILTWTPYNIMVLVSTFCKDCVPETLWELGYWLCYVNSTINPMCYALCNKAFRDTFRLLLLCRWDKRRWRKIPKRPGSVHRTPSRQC
# In short: (§1)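 Fluo-3 read-out, ex 488/em 540 nm, 60 sec on FLIPR 3. For agonist mode, compound added directly; for inhibition, 15 min compound pre-incubation before carbachol at EC80 (added as a 3× solution), or co-application. Buffer pH 7.4 with 1 mM probenecid; DMSO 0.5%.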
# [2] = target: T2, M4 muscarinic receptor (Homo sapiens, UniProt P08173); experiment: Functional mobilization of intracellular calcium (FLIPR, Fluo-3), M4-CHO cells; assay type: cell-based; conditions: for Emax: read-out: M4 Efficacy
# T2 construct: expressed in transfected cells; host or cells: CHO cells (M4-CHO, under puromycin, zeocin and blasticidin selection)
# T2 sequence (P08173 1-479): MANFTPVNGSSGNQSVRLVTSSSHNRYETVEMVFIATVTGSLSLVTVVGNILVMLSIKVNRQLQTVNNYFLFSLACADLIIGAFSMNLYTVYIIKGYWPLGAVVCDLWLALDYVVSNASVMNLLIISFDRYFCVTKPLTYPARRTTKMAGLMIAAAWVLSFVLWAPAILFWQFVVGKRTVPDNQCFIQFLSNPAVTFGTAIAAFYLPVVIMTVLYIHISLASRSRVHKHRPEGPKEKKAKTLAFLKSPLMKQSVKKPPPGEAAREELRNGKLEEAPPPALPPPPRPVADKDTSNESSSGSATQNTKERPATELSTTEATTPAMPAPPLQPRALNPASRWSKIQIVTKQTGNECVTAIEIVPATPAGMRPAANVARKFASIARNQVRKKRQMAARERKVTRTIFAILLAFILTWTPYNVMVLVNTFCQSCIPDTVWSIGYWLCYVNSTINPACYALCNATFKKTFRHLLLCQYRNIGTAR
# In short: as §1
# [3] = compound nos. 1-454, 100% efficacy is the maximum response obtained with the Carbachol control
# [4] = compound nos. 1-454, M1-CHO cells, calcium mobilization
# [5] = compound nos. 1-454, M4-CHO cells, calcium mobilization
# [6] = compound nos. 455-509, 100% efficacy is the maximum response obtained with the Carbachol control
SMILES,"Emax [1, 3] [%]","M1 Activity [1, 4]","Emax [2, 3] [%]","M4 Activity [2, 5]",further results
CCOC(=O)N1CCC(N2CCC3(CC2)CN(C(=O)OC)c2ccc(F)cc23)CC1 [compound 173],65 to 85,+++ (activity was measured to be less than or equal to 0.7 μM),> 70,++ (activity was measured to be between 0.1 μM and 4.0 μM),
CCOC(=O)N1CCC(N2CCC3(CC2)C(=O)N(C)c2ccccc23)CC1 [compound 31],> 85,+++ (activity was measured to be less than or equal to 0.7 μM),55 to 70,+++ (activity was measured to be less than or equal to 0.1 μM),
CC(C)COC(=O)N1C2CCC1CC(N1CCC3(CC1)COc1ccc(F)cc13)C2 (stereo not shown) [compound 160],> 85,+++ (activity was measured to be less than or equal to 0.7 μM),> 70,++ (activity was measured to be between 0.1 μM and 4.0 μM),
CCC1CCC(N2CCC3(CC2)C[C@H](NC(C)=O)c2ccccc23)CC1 (stereo partly shown) [compound 367],< 65,+ (activity was measured to be greater than or equal to 3.0 μM),< 55,+ (activity was measured to be greater than or equal to 4.0 μM),
CC(=O)N1CC2(CCN(C3CCC4(CC3)CC(C)=NO4)CC2)c2cc(F)ccc21 (stereo not shown) [compound 433],65 to 85,,< 55,,M1 Activity ([1]; compound nos. 1-454): ++ (activity was measured to be between 0.7 μM and 3.0 μM); M4 Activity ([2]; compound nos. 1-454): ++ (activity was measured to be between 0.1 μM and 4.0 μM)
CCOC(=O)N1CCC(CN2CCC3(CC2)C(=O)Nc2ccccc23)CC1 [compound 319],< 65,++ (activity was measured to be between 0.7 μM and 3.0 μM),< 55,+ (activity was measured to be greater than or equal to 4.0 μM),
CCOC(=O)N1CCC(N2CCC3(CC2)CNc2ccccc23)CC1 [compound 352],> 85,+++ (activity was measured to be less than or equal to 0.7 μM),> 70,+ (activity was measured to be greater than or equal to 4.0 μM),
CCCOC(=O)N1CCC(N2CCC3(CC2)CN(C(C)=O)c2ccc(F)cc23)CC1 [compound 79],< 65,++ (activity was measured to be between 0.7 μM and 3.0 μM),< 55,+ (activity was measured to be greater than or equal to 4.0 μM),
COCCOC(=O)N1CCC(CN2CCC3(CC2)C[C@H](NC(C)=O)c2ccccc23)CC1 [compound 412],< 65,,< 55,,M1 Activity ([1]; compound nos. 1-454): ++ (activity was measured to be between 0.7 μM and 3.0 μM); M4 Activity ([2]; compound nos. 1-454): + (activity was measured to be greater than or equal to 4.0 μM)
CCOC(=O)N1CCC(N2CCC3(CC2)CN(C(=O)c2ccc(OC(F)(F)F)cc2)c2ccc(F)cc23)CC1 [compound 66],> 85,+++ (activity was measured to be less than or equal to 0.7 μM),> 70,+++ (activity was measured to be less than or equal to 0.1 μM),
Cc1ncc(N2CCC(N3CCC4(CC3)CN(C(=O)N(C)C)c3ccccc34)CC2)nc1C [compound 487],,,,,"Emax [1, 6]: > 100%; M1 Activity ([1]; compounds 455-509): +++ (activity was measured to be less than or equal to 2.0 μM); Emax [2, 6]: 25 to 100%; M4 Activity ([2]; compounds 455-509): ++ (activity was measured to be between 2.0 μM and 5.0 μM)"
CCNC(=O)N1CC2(CCN(C3CC4CCC(C3)N4C(=O)OCC)CC2)c2cc(F)ccc21 (stereo not shown) [compound 255],< 65,+ (activity was measured to be greater than or equal to 3.0 μM),< 55,+ (activity was measured to be greater than or equal to 4.0 μM),
CC(=O)N1CC2(CCN(C3CCC(C(F)(F)F)CC3)CC2)c2cc(F)ccc21 (stereo not shown) [compound 236],65 to 85,+++ (activity was measured to be less than or equal to 0.7 μM),55 to 70,++ (activity was measured to be between 0.1 μM and 4.0 μM),
CCOC(=O)N1C2CCC1CC(N1CCC3(CC1)C(=O)Nc1ccccc13)C2 (stereo not shown) [compound 199],65 to 85,++ (activity was measured to be between 0.7 μM and 3.0 μM),< 55,+ (activity was measured to be greater than or equal to 4.0 μM),
O=C(O[C@@H]1CCOC1)N1CC2(CCN(C3CC4CCC(C3)N4C(=O)O[C@@H]3CCOC3)CC2)c2cc(F)ccc21 (stereo partly shown) [compound 112],65 to 85,+++ (activity was measured to be less than or equal to 0.7 μM),< 55,++ (activity was measured to be between 0.1 μM and 4.0 μM),
C#CCOC(=O)N1CCC(CN2CCC3(CC2)C[C@H](NC(C)=O)c2ccccc23)CC1 [compound 364],> 85,+++ (activity was measured to be less than or equal to 0.7 μM),< 55,+ (activity was measured to be greater than or equal to 4.0 μM),
CN(C)C(=O)N1CC2(CCN(CC3CCN(c4nccs4)C3)CC2)c2cc(F)ccc21 (stereo not shown) [compound 450],65 to 85,,55 to 70,,M1 Activity ([1]; compound nos. 1-454): ++ (activity was measured to be between 0.7 μM and 3.0 μM); M4 Activity ([2]; compound nos. 1-454): +++ (activity was measured to be less than or equal to 0.1 μM)
CCOC(=O)N1CCC(N2CCC3(CC2)CN(C(C)=O)c2ccc(F)cc23)C1 (stereo not shown) [compound 113],65 to 85,+++ (activity was measured to be less than or equal to 0.7 μM),< 55,+ (activity was measured to be greater than or equal to 4.0 μM),
O=C(C1CC1)N1CC2(CCN(C3CC4CCC(C3)N4C(=O)O[C@H]3CCOC3)CC2)c2cc(F)ccc21 (stereo partly shown) [compound 57],65 to 85,+++ (activity was measured to be less than or equal to 0.7 μM),55 to 70,+++ (activity was measured to be less than or equal to 0.1 μM),
CCOC(=O)N1CCC(N2CCC3(CC2)CN(C(=O)OCC(C)C)c2ccc(F)cc23)CC1 [compound 30],> 85,+++ (activity was measured to be less than or equal to 0.7 μM),> 70,+++ (activity was measured to be less than or equal to 0.1 μM),
CN(C)C(=O)N1CC2(CCN(C3CCN(c4ccccn4)CC3)CC2)c2cc(F)ccc21 [compound 452],65 to 85,,55 to 70,,M1 Activity ([1]; compound nos. 1-454): ++ (activity was measured to be between 0.7 μM and 3.0 μM); M4 Activity ([2]; compound nos. 1-454): +++ (activity was measured to be less than or equal to 0.1 μM)
CCOC(=O)N1CCC(N2CCC3(CC2)CN(C(C)=O)c2ccc(C4=CCCC4)cc23)CC1 [compound 426],< 65,,< 55,,M1 Activity ([1]; compound nos. 1-454): + (activity was measured to be greater than or equal to 3.0 μM); M4 Activity ([2]; compound nos. 1-454): + (activity was measured to be greater than or equal to 4.0 μM)
CC(=O)N1CC2(CCN(CC3CCN(C(=O)O[C@@H]4CCOC4)CC3)CC2)c2cc(F)ccc21 [compound 82],,+++ (activity was measured to be less than or equal to 0.7 μM),,++ (activity was measured to be between 0.1 μM and 4.0 μM),"M1 Efficacy [1, 3]: ++ (efficacy was calculated to be between 85% and 65%); M4 Efficacy [2, 3]: ++ (efficacy was calculated to be between 70% and 55%)"
Clc1ccc2c(c1)C1(CCN(C3CCOCC3)CC1)CN2 [compound 37],65 to 85,+++ (activity was measured to be less than or equal to 0.7 μM),> 70,++ (activity was measured to be between 0.1 μM and 4.0 μM),
CCCOC(=O)N1C2CCC1CC(N1CCC3(CC1)CN(C(=O)C1CCC1)c1ccc(F)cc13)C2 (stereo not shown) [compound 302],< 65,+ (activity was measured to be greater than or equal to 3.0 μM),< 55,+ (activity was measured to be greater than or equal to 4.0 μM),
